Measurements as given in patent US8273900B2, “Organic compounds” (Novartis AG, priority 2008, dated 2012).

Target: T1, human recombinant CRF-1 receptor (Homo sapiens, UniProt P34998)
T1 construct: expressed in transfected cells; host or cells: CHO cells (G418-selected)
T1 sequence (P34998 24-415): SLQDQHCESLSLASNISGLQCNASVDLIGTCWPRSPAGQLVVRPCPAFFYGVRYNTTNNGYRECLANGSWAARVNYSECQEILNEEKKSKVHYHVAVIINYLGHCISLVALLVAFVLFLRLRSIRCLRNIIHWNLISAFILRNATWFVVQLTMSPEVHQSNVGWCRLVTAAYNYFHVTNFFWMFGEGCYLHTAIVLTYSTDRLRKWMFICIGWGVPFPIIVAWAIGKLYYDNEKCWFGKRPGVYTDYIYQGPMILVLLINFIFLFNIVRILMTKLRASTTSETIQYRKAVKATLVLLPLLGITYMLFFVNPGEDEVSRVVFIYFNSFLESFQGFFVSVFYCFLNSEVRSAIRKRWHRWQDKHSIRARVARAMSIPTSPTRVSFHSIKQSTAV
Experiment: CRF-1 receptor antagonism, HTRF cAMP assay in CHO cells in the presence of 1 nM CRF
Type: cell-based
Settings: CHO cells expressing human recombinant CRF-1; inhibition of the effect of 1 nM CRF on cAMP

| SMILES | IC50 |
| --- | --- |
| O=C(N[C@H]1CC[C@H](CNc2n[nH]cc2-c2ccc(Cl)cc2)CC1)c1cc(C(F)(F)F)ccc1Cl [Example 19.80, Trans-2-chloro-N-(4-((4-(4-chlorophenyl)-1H-pyrazol-3-ylamino)methyl)cyclohexyl)-5-(trifluoromethyl) benzamide] | 15 nM |
| Cc1cc(NC[C@H]2CC[C@H](NC(=O)c3cc(Cl)cnc3C)CC2)ncc1Cl [Example 19.83, Trans-5-chloro-N-(4-((5-chloro-4-methylpyridin-2-ylamino)methyl)cyclohexyl)-2-methyl-nicotinamide] | 38 nM |
| Cc1[nH]nc(NC[C@H]2CC[C@H](NC(=O)c3cc(C(F)(F)F)ccc3Cl)CC2)c1-c1ccc(Cl)cc1 [Example 19.91, Trans-2-chloro-N-(4-((4-(4-chlorophenyl)-5-methyl-1H-pyrazol-3-ylamino)methyl)cyclohexyl)-5-(trifluoromethyl) benzamide] | 57 nM |
| O=C(N[C@H]1CC[C@H](CNc2n[nH]c3cccnc23)CC1)c1cc(C(F)(F)F)ccc1Cl [Example 19.93, Trans-N-(4-((1H-pyrazolo [4,3-b]pyridin-3-ylamino)methyl)cyclohexyl)-2-chloro-5-(trifluoromethyl) benzamide] | 69 nM |
| O=C(N[C@H]1CC[C@H](CNc2n[nH]cc2-c2ccccc2)CC1)c1cc(C(F)(F)F)ccc1Cl [Example 19.94, Trans-2-chloro-N-(4-((4-phenyl-1H-pyrazol-3-ylamino)methyl)cyclohexyl)-5-(trifluoromethyl) benzamide] | 59 nM |
| COc1ccc(Cl)c(NC[C@H]2CC[C@H](NC(=O)c3cc(C(F)(F)F)ccc3Cl)CC2)n1 [Example 19.98, Trans-2-Chloro-N-{4-[(3-chloro-6-methoxy-pyridin-2-ylamino)-methyl]-cyclohexyl}-5-trifluoromethyl-benzamide] | 52 nM |
| O=C(N[C@H]1CC[C@H](CNc2nnnn2-c2ccccc2)CC1)c1cc(C(F)(F)F)ccc1Cl [Example 19.100, Trans-2-Chloro-N-{4-[(1-phenyl-1H-tetrazol-5-ylamino)-methyl]-cyclohexyl}-5-trifluoromethyl-benzamide] | 29 nM |
| Cn1cc(-c2ccccc2)c(NC[C@H]2CC[C@H](NC(=O)c3cc(C(F)(F)F)ccc3Cl)CC2)n1 [Example 19.101, Trans-2-Chloro-N-{4-[(1-methyl-4-phenyl-1H-pyrazol-3-ylamino)-methyl]-cyclohexyl}-5-trifluoromethyl-benzamide] | 69 nM |
| Cc1noc(NC[C@H]2CC[C@H](NC(=O)c3cc(C(F)(F)F)ccc3Cl)CC2)c1C [Example 19.102, Trans-2-Chloro-N-{4-[(3,4-dimethyl-isoxazol-5-ylamino)-methyl]-cyclohexyl}-5-trifluoromethyl-benzamide] | 76 nM |
| O=C(N[C@H]1CC[C@H](CNc2[nH]ncc2-c2cccnc2)CC1)c1cc(C(F)(F)F)ccc1Cl [Example 19.103, Trans-2-Chloro-N-{4-[(4-pyridin-3-yl-2H-pyrazol-3-ylamino)-methyl]-cyclohexyl}-5-trifluoromethyl-benzamide] | 37 nM |
| [2H]C([2H])([2H])c1ncc(NC[C@H]2CC[C@H](NC(=O)c3cc(C(F)(F)F)ccc3Cl)CC2)cc1Cl [Example 19.104, Trans-2-Chloro-N-{4-[(5-chloro-6-d3-methyl-pyridin-3-ylamino)-methyl]-cyclohexyl}-5-trifluoromethyl-benzamide] | 80 nM |
| Cc1ncc(Cl)cc1C(=O)N[C@H]1CC[C@H](CNc2cc(C(F)(F)F)n[nH]2)CC1 [Example 19.107, Trans-5-Chloro-2-methyl-N-{4-[(5-trifluoromethyl-2H-pyrazol-3-ylamino)-methyl]-cyclohexyl}-nicotinamide] | 118 nM |
| Cc1ncc(Cl)cc1C(=O)N[C@H]1CC[C@H](CNc2ccc(F)cn2)CC1 [Example 19.108, Trans-5-Chloro-N-{4-[(5-fluoro-pyridin-2-ylamino)-methyl]-cyclohexyl}-2-methyl-nicotinamide] | 72 nM |
| CCCc1cc(NC[C@H]2CC[C@H](NC(=O)c3cc(Cl)cnc3C)CC2)n[nH]1 [Example 19.110, Trans-2-Chloro-2 methyl-N-{4-[(5-propyl-1H-pyrazol-3-ylamino)-methyl]-cyclohexyl}-nicotinamide] | 97 nM |
| COc1ncc(Cl)cc1NC[C@H]1CC[C@H](NC(=O)c2cc(C(F)(F)F)ccc2Cl)CC1 [Example 19.113, Trans-2-Chloro-N-{4-[(5-chloro-2-methoxy-pyridin-3-ylamino)-methyl]-cyclohexyl}-5-trifluoromethyl-benzamide] | 153 nM |
| Cc1n[nH]c(NC[C@H]2CC[C@H](NC(=O)c3cc(C(F)(F)F)ccc3Cl)CC2)c1Cl [Example 19.114, Trans-2-Chloro-N-{4-[(4-chloro-5-methyl-2H-pyrazol-3-ylamino)-methyl]-cyclohexyl}-5-trifluoromethyl-benzamide] | 34 nM |
| Cc1cc(NC[C@H]2CC[C@H](NC(=O)c3cc(C(F)(F)F)ccc3Cl)CC2)n(-c2ccc(Cl)cc2)n1 [Example 19.116, Trans-2-Chloro-N-(4-{[2-(4-chloro-phenyl)-5-methyl-2H-pyrazol-3-ylamino]-methyl}-cyclohexyl)-5-trifluoromethyl-benzamide] | 59 nM |
| CCc1[nH]nc(NC[C@H]2CC[C@H](NC(=O)c3cc(C(F)(F)F)ccc3Cl)CC2)c1C [Example 19.117, Trans-2-Chloro-N-{4-[(5-ethyl-4-methyl-1H-pyrazol-3-ylamino)-methyl]-cyclohexyl}-5-trifluoromethyl-benzamide] | 43 nM |
| O=C(N[C@H]1CC[C@H](Cn2ncc3ccccc32)CC1)c1cc(C(F)(F)F)ccc1Cl [Example 21.1, N-(4-((1H-indazol-1-yl)methyl)cyclohexyl)-2-chloro-5-(trifluoromethyl) benzamide] | 114 nM |
| O=C(N[C@H]1CC[C@H](Cn2cc3ccccc3n2)CC1)c1cc(C(F)(F)F)ccc1Cl [Example 21.2, 2-Chloro-N-(4-indazol-2-ylmethyl-cyclohexyl)-5-trifluorometnyl-benzamide] | 338 nM |
| Cc1nc(C)n(C[C@H]2CC[C@H](NC(=O)c3cc(C(F)(F)F)ccc3Cl)CC2)n1 [Example 21.4, 2-Chloro-N-[4-(3,5-dimethyl-[1,2,4]triazol-1-ylmethyl)-cyclohexyl]-5-trifluoromethyl-benzamide] | 299 nM |
| Cc1nn(C[C@H]2CC[C@H](NC(=O)c3cc(C(F)(F)F)ccc3Cl)CC2)c(C)c1Cl [Example 21.8, 2-Chloro-N-[4-(4-chloro-3,5-dimethyl-pyrazol-1-ylmethyl)-cyclohexyl]-5-trifluoromethyl-benzamide] | 113 nM |
| O=C(N[C@H]1CC[C@H](Cn2ccc(-c3ccccc3)n2)CC1)c1cc(C(F)(F)F)ccc1Cl [Example 22.3, 2-Chloro-N-[4-(3-phenyl-pyrazol-1-ylmethyl)-cyclohexyl]-5-trifluoromethyl-benzamide] | 234 nM |
| Cc1cc(C)n(C[C@H]2CC[C@H](NC(=O)c3cc(Cl)cnc3C)CC2)n1 [Example 22.4, 5-Chloro-N-[4-(3,5-dimethyl-pyrazol-1-ylmethyl)-cyclohexyl]-2-methyl-nicotinamide] | 350 nM |
| Cc1ncc(Cl)cc1C(=O)N[C@H]1CC[C@H](Cn2nc(C(F)(F)F)cc2C)CC1 [Example 22.7, Trans-5-Chloro-2-methyl-N-[4-(5-methyl-3-trifluoromethyl-pyrazol-1-ylmethyl)-cyclohexyl]-nicotinamide] | 187 nM |
